Results on four compounds are retold here after ChEMBL document CHEMBL1140940, “Pyrido[2,3-d]pyrimidin-5-ones: a novel class of antiinflammatory macrophage colony-stimulating factor-1 receptor inhibitors” (J Med Chem, 2009).

Series [1] has as its target T1, Receptor-type tyrosine-protein kinase FLT3 (Homo sapiens, UniProt P36888).
T1 sequence (P36888 whole entry): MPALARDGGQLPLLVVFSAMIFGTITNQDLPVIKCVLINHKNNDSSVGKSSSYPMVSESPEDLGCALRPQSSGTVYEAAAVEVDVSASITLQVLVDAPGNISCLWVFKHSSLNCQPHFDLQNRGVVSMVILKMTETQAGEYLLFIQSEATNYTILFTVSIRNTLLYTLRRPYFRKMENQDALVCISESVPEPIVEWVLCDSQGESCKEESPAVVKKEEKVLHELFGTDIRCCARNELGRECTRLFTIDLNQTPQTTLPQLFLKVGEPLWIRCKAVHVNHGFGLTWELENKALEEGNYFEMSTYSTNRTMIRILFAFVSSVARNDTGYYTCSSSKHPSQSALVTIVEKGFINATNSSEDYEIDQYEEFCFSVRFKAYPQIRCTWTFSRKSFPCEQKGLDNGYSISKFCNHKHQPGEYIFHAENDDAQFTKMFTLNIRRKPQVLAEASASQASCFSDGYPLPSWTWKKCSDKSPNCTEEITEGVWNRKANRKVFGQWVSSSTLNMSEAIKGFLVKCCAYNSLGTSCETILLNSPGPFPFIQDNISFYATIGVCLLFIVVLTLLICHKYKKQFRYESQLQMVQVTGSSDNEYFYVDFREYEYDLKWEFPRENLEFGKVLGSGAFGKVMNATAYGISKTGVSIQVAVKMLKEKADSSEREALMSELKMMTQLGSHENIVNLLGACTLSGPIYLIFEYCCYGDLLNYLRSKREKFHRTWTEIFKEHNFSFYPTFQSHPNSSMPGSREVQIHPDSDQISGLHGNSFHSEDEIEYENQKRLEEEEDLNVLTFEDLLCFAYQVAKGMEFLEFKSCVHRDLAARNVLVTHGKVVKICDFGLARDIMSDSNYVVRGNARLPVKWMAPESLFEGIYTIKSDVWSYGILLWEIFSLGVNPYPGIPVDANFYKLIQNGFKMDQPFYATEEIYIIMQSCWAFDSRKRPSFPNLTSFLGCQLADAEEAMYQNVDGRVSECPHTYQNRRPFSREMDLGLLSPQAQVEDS
Description: Inhibition of FLT3 by fluorescence polarization competition immunoassay. (In general: In fluorescence polarisation assays a small probe gives low polarisation when free and higher when bound to something large.)

Series [2] in a line: Half life in Sprague-Dawley rat at 2 mg/kg, iv. It counts as ADME, organism-based. Details: dose 2 mg/kg, route intravenous. Conditions: in vivo.
Series [3] is described as follows: Clearance in Sprague-Dawley rat at 2 mg/kg, iv. In kind it is ADME, organism-based. Details: dose 2 mg/kg, route intravenous. Conditions: in vivo.
The target in series [4] is T2, Tyrosine-protein kinase receptor UFO (Homo sapiens, UniProt P30530).
T2 sequence (P30530 whole entry): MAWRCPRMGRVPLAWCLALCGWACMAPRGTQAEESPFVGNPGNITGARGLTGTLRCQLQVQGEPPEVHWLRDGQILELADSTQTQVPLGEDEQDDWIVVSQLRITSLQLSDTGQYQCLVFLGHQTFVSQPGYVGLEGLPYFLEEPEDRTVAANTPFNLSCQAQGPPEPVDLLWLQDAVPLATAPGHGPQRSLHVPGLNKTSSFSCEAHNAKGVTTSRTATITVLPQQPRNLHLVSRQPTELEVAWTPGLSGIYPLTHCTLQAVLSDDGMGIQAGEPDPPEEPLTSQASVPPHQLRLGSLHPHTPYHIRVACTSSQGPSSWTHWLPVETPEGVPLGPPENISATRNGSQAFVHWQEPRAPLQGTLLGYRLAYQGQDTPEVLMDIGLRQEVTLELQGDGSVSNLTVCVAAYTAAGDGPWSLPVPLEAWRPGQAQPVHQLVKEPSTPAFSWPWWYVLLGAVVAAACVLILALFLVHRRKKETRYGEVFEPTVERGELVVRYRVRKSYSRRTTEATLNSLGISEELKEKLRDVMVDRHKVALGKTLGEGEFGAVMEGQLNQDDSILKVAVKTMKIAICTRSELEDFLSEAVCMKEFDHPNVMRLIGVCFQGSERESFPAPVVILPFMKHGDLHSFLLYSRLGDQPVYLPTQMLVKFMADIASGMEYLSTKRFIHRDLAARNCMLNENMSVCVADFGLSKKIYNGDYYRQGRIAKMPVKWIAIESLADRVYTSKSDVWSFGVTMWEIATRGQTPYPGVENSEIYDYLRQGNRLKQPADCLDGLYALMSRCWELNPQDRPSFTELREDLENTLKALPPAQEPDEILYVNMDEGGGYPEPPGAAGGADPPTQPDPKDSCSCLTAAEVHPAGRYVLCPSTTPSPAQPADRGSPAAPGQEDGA
The series can be described thus: Inhibition of Axl by fluorescence polarization competition immunoassay.

A further series deals with Insulin receptor (Homo sapiens, UniProt P06213). Description: Inhibition of IRKbeta by fluorescence polarization competition immunoassay.
Sequence of Insulin receptor (P06213 28-758 limits assumed): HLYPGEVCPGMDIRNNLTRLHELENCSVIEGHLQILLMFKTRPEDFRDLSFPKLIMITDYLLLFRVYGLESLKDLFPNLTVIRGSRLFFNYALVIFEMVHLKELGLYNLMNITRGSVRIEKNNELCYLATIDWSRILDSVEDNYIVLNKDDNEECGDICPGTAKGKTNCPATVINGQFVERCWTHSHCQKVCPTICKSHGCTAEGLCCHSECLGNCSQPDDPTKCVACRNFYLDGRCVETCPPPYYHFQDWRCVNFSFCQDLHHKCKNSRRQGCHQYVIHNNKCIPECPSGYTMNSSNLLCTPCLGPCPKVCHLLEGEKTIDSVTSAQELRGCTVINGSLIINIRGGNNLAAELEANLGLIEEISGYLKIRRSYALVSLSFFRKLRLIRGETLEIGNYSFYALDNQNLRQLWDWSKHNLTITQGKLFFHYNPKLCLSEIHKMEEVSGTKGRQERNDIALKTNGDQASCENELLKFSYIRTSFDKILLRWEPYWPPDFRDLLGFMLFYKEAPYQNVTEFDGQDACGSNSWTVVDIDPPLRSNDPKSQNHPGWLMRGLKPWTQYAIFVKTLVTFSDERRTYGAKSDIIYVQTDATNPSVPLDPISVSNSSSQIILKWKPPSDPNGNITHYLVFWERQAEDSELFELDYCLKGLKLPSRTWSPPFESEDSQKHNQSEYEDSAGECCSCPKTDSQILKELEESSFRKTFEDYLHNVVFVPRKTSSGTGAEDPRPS
Sequence of Insulin receptor (P06213 763-1382 limits assumed): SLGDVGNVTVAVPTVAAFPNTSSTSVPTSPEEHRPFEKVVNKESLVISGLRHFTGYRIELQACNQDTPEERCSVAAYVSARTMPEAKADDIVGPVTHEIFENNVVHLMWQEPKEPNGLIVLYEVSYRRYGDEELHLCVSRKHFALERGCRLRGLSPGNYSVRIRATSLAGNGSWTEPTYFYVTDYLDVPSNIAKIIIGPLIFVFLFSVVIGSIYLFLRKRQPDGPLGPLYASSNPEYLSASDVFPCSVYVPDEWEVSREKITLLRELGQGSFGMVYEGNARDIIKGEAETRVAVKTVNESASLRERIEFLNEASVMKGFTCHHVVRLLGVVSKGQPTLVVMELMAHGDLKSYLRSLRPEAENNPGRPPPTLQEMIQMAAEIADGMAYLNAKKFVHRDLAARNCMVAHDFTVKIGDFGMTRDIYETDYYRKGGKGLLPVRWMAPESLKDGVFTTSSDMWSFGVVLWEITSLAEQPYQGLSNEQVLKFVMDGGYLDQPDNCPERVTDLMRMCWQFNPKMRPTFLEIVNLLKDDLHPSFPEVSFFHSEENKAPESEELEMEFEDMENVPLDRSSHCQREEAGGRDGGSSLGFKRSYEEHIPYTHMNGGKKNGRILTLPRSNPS
Series [5] is described as follows: Oral bioavailability in Sprague-Dawley rat at 10 mg/kg. It counts as ADME, organism-based. The settings on record: in vivo.
Series [6] is described as follows: Metabolic stability in rat liver microsomes after 10 mins. Conditions: read-out: Stability. In kind it is ADME, Microsome.
Series [7] is described as follows: Metabolic stability in human liver microsomes after 10 mins. In kind it is ADME, Microsome. Conditions: read-out: Stability. In general terms: Microsomes from liver hold many membrane-bound enzymes, among them those of drug oxidation.
Series [8] has as its target Mast/stem cell growth factor receptor Kit (Homo sapiens, UniProt P10721). Description: Inhibition of KIT by fluorescence polarization competition immunoassay.
The target in series [9] is High affinity nerve growth factor receptor (Homo sapiens, UniProt P04629). The series can be described thus: Inhibition of TrkA by fluorescence polarization competition immunoassay.
Sequence of High affinity nerve growth factor receptor (P04629 whole entry): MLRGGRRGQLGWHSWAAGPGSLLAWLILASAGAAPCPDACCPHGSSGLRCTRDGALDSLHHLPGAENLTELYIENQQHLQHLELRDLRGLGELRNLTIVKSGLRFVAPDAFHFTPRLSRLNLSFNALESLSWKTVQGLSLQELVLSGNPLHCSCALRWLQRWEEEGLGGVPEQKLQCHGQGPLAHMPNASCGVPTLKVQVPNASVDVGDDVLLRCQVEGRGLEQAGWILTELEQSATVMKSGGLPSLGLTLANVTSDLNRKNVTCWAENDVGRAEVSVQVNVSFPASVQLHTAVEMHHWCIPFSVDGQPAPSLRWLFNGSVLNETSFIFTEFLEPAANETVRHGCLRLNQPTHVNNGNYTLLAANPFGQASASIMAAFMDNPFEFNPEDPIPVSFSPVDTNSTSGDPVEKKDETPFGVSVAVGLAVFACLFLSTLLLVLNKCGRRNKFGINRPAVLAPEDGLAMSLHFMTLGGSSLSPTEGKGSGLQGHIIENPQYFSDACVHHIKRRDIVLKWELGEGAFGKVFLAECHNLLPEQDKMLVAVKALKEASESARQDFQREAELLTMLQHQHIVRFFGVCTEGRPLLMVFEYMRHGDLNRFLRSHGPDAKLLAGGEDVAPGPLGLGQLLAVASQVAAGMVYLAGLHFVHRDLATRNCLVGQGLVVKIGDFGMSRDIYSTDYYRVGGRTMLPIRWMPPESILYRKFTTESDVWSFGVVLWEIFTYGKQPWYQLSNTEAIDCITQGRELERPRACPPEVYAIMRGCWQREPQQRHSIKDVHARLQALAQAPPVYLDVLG
Series [10] has as its target Proto-oncogene tyrosine-protein kinase Src (Homo sapiens, UniProt P12931). Description: Inhibition of Src by fluorescence polarization competition immunoassay.
Series [11] concerns the target Platelet-derived growth factor receptor beta (Homo sapiens, UniProt P09619). The series can be described thus: Inhibition of PDGFRbeta by fluorescence polarization competition immunoassay.
A short description of series [12]: Volume of distribution at steady state in Sprague-Dawley rat at 2 mg/kg, iv. In kind it is ADME, organism-based. Details: dose 2 mg/kg, route intravenous. Conditions: in vivo, read-out: Vdss.
Series [13] can be described thus: Half life in Sprague-Dawley rat at 10 mg/kg, po. In kind it is ADME, organism-based. The arrangement: dose 10 mg/kg, route oral. The settings on record: in vivo.
Series [14] in a line: Cmax in Sprague-Dawley rat at 10 mg/kg, po. In kind it is ADME, organism-based. Details: dose 10 mg/kg, route oral. Conditions: in vivo.
The species named for series [15] is Rattus norvegicus. Description: Toxicity in rat assessed as induction of cold body. Conditions: in vivo. It counts as organism-based.
Series [16] is filed under the species Rattus norvegicus. The series can be described thus: Toxicity in rat assessed as induction of weight loss. It counts as organism-based. Conditions: in vivo.
Series [17] is filed under the species Rattus norvegicus. The series can be described thus: Toxicity in rat assessed as induction of mucoid feces. It counts as organism-based. The settings on record: in vivo.
For series [18], the target named is Macrophage colony-stimulating factor 1 receptor (Homo sapiens, UniProt P07333).

Sequence of Platelet-derived growth factor receptor beta (P09619 whole entry): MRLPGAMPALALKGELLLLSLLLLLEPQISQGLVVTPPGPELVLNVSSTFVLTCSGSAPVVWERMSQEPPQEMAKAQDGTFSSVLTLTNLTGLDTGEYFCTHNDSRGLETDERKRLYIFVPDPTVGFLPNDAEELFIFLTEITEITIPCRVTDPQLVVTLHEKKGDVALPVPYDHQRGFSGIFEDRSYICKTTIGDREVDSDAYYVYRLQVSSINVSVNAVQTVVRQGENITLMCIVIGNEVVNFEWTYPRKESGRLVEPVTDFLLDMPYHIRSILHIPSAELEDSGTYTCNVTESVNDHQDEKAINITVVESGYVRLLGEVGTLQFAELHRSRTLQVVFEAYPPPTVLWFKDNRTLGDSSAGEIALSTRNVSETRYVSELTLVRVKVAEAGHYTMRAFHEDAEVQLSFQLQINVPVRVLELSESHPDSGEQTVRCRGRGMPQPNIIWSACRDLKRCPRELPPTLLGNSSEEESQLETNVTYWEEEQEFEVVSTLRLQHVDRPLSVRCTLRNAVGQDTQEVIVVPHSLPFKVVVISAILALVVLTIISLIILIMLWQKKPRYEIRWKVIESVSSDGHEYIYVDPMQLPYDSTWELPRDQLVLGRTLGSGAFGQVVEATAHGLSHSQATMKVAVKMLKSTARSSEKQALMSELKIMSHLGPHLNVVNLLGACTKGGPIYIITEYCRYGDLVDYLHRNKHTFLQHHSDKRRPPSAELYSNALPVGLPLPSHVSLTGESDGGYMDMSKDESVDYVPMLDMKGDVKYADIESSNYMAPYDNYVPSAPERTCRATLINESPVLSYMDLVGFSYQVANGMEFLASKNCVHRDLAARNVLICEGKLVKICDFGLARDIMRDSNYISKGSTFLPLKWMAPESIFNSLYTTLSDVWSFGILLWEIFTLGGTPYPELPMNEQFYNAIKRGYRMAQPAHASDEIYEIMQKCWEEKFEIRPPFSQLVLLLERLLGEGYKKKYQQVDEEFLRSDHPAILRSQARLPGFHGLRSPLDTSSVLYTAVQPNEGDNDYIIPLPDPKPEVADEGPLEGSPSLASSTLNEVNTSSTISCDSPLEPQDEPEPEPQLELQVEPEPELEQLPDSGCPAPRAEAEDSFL
Sequence of Proto-oncogene tyrosine-protein kinase Src (P12931 2-536 limits assumed): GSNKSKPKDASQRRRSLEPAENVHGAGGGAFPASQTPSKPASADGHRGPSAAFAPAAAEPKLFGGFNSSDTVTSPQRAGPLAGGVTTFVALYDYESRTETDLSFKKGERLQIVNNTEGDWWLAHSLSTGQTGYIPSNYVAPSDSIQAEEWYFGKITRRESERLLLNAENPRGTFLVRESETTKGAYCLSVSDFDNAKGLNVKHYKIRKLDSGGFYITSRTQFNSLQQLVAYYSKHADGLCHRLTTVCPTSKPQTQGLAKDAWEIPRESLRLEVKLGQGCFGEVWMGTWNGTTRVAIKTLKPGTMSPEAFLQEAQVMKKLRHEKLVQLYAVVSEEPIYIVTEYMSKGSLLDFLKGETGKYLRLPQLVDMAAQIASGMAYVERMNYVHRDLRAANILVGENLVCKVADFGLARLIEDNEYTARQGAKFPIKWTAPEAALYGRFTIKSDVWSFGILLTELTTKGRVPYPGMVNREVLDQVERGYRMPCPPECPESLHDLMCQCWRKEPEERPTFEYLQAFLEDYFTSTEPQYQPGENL
Sequence of Mast/stem cell growth factor receptor Kit (P10721 whole entry): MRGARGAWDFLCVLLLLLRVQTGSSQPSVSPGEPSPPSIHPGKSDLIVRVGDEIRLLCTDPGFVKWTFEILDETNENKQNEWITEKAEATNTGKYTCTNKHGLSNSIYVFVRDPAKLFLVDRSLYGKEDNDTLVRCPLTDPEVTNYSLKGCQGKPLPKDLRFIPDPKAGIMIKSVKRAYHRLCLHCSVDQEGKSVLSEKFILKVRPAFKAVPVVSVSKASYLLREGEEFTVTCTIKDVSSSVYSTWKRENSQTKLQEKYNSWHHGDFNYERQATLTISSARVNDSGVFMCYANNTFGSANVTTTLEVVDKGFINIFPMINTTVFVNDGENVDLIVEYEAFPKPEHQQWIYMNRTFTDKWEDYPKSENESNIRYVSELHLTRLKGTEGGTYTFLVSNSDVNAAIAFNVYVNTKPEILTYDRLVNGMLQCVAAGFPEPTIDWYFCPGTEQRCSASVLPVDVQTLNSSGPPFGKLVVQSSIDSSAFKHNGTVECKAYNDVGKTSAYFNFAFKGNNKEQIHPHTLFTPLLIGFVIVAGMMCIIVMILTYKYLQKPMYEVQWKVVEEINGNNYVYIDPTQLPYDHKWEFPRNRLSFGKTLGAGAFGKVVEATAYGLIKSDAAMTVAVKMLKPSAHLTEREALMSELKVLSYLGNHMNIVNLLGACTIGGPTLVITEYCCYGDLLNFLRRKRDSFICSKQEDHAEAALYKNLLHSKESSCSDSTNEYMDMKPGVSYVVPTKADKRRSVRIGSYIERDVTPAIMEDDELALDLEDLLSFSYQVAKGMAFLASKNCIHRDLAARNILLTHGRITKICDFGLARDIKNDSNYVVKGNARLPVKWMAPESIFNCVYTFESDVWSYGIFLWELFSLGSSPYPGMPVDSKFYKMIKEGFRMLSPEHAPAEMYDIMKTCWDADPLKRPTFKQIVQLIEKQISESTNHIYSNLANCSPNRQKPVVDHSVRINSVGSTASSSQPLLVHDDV

As to `CONC(=O)c1cn(-c2ccc3c(c2)CCC3)c2nc(Nc3ccc(C4CCN(CC(=O)O)CC4)cc3)ncc2c1=O`, the IC50 in series [1] is 0.041 µM; in series [4], > 0.5 µM; at Insulin receptor it was 9.3 µM; in series [8], 0.013 µM; in series [9], > 0.5 µM; in series [10], 0.93 µM. For the same compound, the IC50 in series [11] was > 2 µM. In addition, the half-life in series [2] was 1.7 h. For the same compound, the clearance in series [3] was found to be 38 mL/min/kg. In addition, in [5], the bioavailability amounted to 0%. The remaining at 10 min turned out to be 99% in [6] and 100% in series [7]. Further, the Vd in series [12] worked out at 5.1 L/kg.
On to `CCc1ccc(-n2cc(C(=O)NOC)c(=O)c3cnc(Nc4ccc(C5CCN(C)CC5)cc4)nc32)cc1`, for which the half-life in [2] was 8 h; in series [13] it was 8.1 h. For the same compound, in series [3], the clearance came to 8 mL/min/kg. The same compound displayed a Cmax in [14] of 3.4 µM. The Activity result in the series filed under Rattus norvegicus [15], in the series listed under Rattus norvegicus [16] and in the series filed under Rattus norvegicus [17] was “Non-toxic” in each case. Moreover, the bioavailability in [5] came out at 103%. Moreover, the remaining at 10 min was 96% in [6] and 75% in series [7]. In series [12], the Vd was 5.9 L/kg.
`CONC(=O)c1cn(-c2ccc3c(c2)CCC3)c2nc(Nc3ccc(CCN4CCN(C)CC4)cc3)ncc2c1=O`: the IC50 in [1] was 0.036 µM; in series [18], 0.0007 µM; in [4] it was > 0.5 µM; on Insulin receptor, 19.8 µM; in [8], 0.006 µM; in series [9], > 0.5 µM. The IC50 in series [10] was 1.5 µM; in [11] it was 5.3 µM. In addition, the half-life in series [2] was 4.5 h; in series [13] it was 6.5 h. For the same compound, the clearance in [3] is 4 mL/min/kg. In [14], this compound yielded a Cmax of 2.7 µM. Besides, the bioavailability in [5] is 57%. The remaining at 10 min in series [6] was determined as 78%. In [12], the Vd came to 1.5 L/kg.
`CN1CCN(CCc2ccc(Nc3ncc4c(=O)c(C(N)=O)cn(-c5ccc6c(c5)CCC6)c4n3)cc2)CC1`: the IC50 in series [1] was 0.001 µM; in series [4] it was > 0.5 µM; on Insulin receptor, > 42 µM; in series [8], 0.02 µM; in [9], 0.17 µM; in series [10], 5.9 µM. Besides, in series [11], the IC50 was > 42 µM. In [2], this compound showed a half-life of 7 h. In [3], this compound returned a clearance of 25 mL/min/kg. Also, the bioavailability in series [5] amounted to 0%. The remaining at 10 min in series [6] amounted to 96%. In addition, the Vd in series [12] was 15.5 L/kg.

Broadly, the IC50 is the concentration that inhibits the measured activity by half. High values mean lower potency, low ones higher potency. By half-life is commonly meant the time in which the quantity being followed falls by half. High values mean slow decline, low ones rapid decline. A word on the clearance: it is the rate of elimination divided by the concentration. The low end stands for a low capacity for elimination, the high end for a high capacity for elimination. A word on the Cmax: it is the highest concentration seen after dosing.
